Results on 65 compounds are retold here after patent publication US7772263B2, “Compounds for the treatment of inflammatory disorders” (Schering Corporation, priority 2006, dated 2010).

For orientation: Ki means the equilibrium dissociation constant of an inhibitor or competing ligand from its target.

Some results are limits rather than exact numbers.

T1 sequence (P78536 215-477 S266A/N452Q limits assumed): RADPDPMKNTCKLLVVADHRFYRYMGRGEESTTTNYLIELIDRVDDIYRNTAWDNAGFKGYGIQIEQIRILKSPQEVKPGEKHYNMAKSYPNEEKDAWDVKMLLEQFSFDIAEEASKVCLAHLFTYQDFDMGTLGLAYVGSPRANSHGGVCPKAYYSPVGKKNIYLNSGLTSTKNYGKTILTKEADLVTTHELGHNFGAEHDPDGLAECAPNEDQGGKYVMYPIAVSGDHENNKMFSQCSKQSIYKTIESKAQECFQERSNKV

The first test concerns the target T1, purified catalytic domain of recombinant human TACE (rhTACEc) (Homo sapiens, UniProt P78536, N452Q/S266A).
T1 construct: rhTACEc, Residue 215 to 477 with two mutation (S266A and N4520) and a 6×His tail; 6xHis (C); made in house; host or cells: baculovirus/Hi5 insect cells
The experiment in a line: TACE kinetic assay, cleavage of internally quenched fluorescent peptide substrate SPDL-3. The following applies: TACE inhibition, Table 1001; read-out: Ki Rating. It counts as biochemical.
`COc1ccc2c(c1)C(=O)N(C[C@@]1(C#Cc3ccc(F)c(C#N)c3)NC(=O)NC1=O)C2` [Compound 906]: the Ki is less than 5 nM.
On to `COc1ccc2c(c1)C(=O)N(C[C@@]1(C#Cc3ccc(OC)c(F)c3)NC(=O)NC1=O)C2` [Compound 907], for which the inhibition constant Ki was less than 5 nM.
For `COc1ccc2c(c1)C(=O)N(C[C@@]1(C#Cc3cc(F)cc(F)c3OC)NC(=O)NC1=O)C2` [Compound 908], the inhibition constant Ki was less than 5 nM.
Take `COc1ccc2c(c1)C(=O)N(C[C@@]1(C#Cc3ccc(-c4ccccn4)s3)NC(=O)NC1=O)C2` [Compound 909]: the inhibitory constant (Ki) is less than 5 nM.
Turning to `COc1ccc2c(c1)C(=O)N(C[C@@]1(C#Cc3nc4ccccc4s3)NC(=O)NC1=O)C2` [Compound 910], the inhibition constant (Ki) is less than 5 nM.
As for `COc1ccc2c(c1)C(=O)N(C[C@@]1(C#Cc3c(C)n[nH]c3C)NC(=O)NC1=O)C2` [Compound 911], the inhibition constant Ki was less than 5 nM.
On to `COc1ccc2c(c1)C(=O)N(C[C@@]1(C#Cc3c(N)ccc4scnc34)NC(=O)NC1=O)C2` [Compound 912], for which the Ki is less than 5 nM.
With `COc1ccc2c(c1)C(=O)N(C[C@@]1(C#Cc3ncnc4c3ncn4C(C)C)NC(=O)NC1=O)C2` [Compound 913], the Ki is less than 5 nM.
As to `COc1ccc2c(c1)C(=O)N(C[C@@]1(C#Cc3ncnc4[nH]cnc34)NC(=O)NC1=O)C2` [Compound 914], the inhibition constant (Ki) is less than 5 nM.
Regarding `COC(=O)c1ccc(C#C[C@]2(CN3Cc4ccc(OC)cc4C3=O)NC(=O)NC2=O)o1` [Compound 915], the Ki was less than 5 nM.
`COc1ccc2c(c1)C(=O)N(C[C@@]1(C#Cc3ccc(C(N)=O)o3)NC(=O)NC1=O)C2` [Compound 916]: the inhibition constant (Ki) is less than 5 nM.
Same read-out and setting: to `COc1ccc2c(c1)C(=O)N(C[C@@]1(C#Cc3ccc(C(=O)O)o3)NC(=O)NC1=O)C2` [Compound 917] belongs less than 5 nM.
Turning to `COc1ccc2c(c1)C(=O)N(C[C@@]1(C#Cc3cnc(C)n3C)NC(=O)NC1=O)C2` [Compound 918], the Ki was less than 5 nM.
As to `CCc1cc(C#C[C@]2(CN3Cc4ccc(OC)cc4C3=O)NC(=O)NC2=O)cc2sc(N)nc12` [Compound 919], the Ki was less than 5 nM.
Regarding `COc1ccc2c(c1)C(=O)N(C[C@@]1(C#Cc3cnccc3N)NC(=O)NC1=O)C2` [Compound 920], the inhibitory constant (Ki) is less than 5 nM.
For the compound `O=C1NC(=O)[C@@](C#Cc2cc(F)cc(F)c2)(CN2Cc3ccc(OC(F)F)cc3C2=O)N1` [Compound 922], the Ki was less than 5 nM.
Still for that read-out and setting: to `COC(=O)c1ncccc1C#C[C@]1(CN2Cc3ccc(OC)cc3C2=O)NC(=O)NC1=O` [Compound 924] belongs less than 5 nM; to `COc1ccc2c(c1)C(=O)N(C[C@@]1(C#Cc3cccnc3C(=O)O)NC(=O)NC1=O)C2` [Compound 925], less than 5 nM.
Consider `COc1ccc2c(c1)C(=O)N(C[C@@]1(C#Cc3ccncc3N)NC(=O)NC1=O)C2` [Compound 926], for which the inhibitory constant (Ki) fell in the range of 5 to 25 nM.
With `COc1ccc2c(c1)C(=O)N(C[C@@]1(C#Cc3ncccc3N)NC(=O)NC1=O)C2` [Compound 928], the inhibitory constant (Ki) is less than 5 nM.
For `COc1ccc2c(c1)C(=O)N(C[C@@]1(C#Cc3cccnc3N)NC(=O)NC1=O)C2` [Compound 930], the inhibition constant Ki was less than 5 nM.
`COc1ccc2c(c1)C(=O)N(C[C@@]1(C#Cc3cccc(C(C)C)c3)NC(=O)NC1=O)C2` [Compound 931]: the Ki was less than 5 nM.
For the compound `COc1ccc2c(c1)C(=O)N(C[C@@]1(C#Cc3cnc4ncccc4c3)NC(=O)NC1=O)C2` [Compound 932], the Ki was less than 5 nM.
As to `COc1ccc2c(c1)C(=O)N(C[C@@]1(C#Cc3ccc4ncccc4c3)NC(=O)NC1=O)C2` [Compound 933], the Ki is less than 5 nM.
The same measure, in the same setting: next, `COc1ccc2c(c1)C(=O)N(C[C@@]1(C#Cc3cc(C(F)(F)F)cc(C(F)(F)F)c3)NC(=O)NC1=O)C2` [Compound 934]: less than 5 nM; `COc1ccc2c(c1)C(=O)N(C[C@@]1(C#Cc3ccc(OC(F)F)cc3)NC(=O)NC1=O)C2` [Compound 937]: less than 5 nM.
Consider `COc1ccc2c(c1)C(=O)N(C[C@@]1(C#Cc3cc(F)c(Cl)c(F)c3)NC(=O)NC1=O)C2` [Compound 938], for which the Ki was less than 5 nM.
For `COc1ccc2c(c1)C(=O)N(C[C@@]1(C#Cc3ccc(C#N)c(F)c3)NC(=O)NC1=O)C2` [Compound 939], the Ki is less than 5 nM.
As to `COc1ccc2c(c1)C(=O)N(C[C@@]1(C#Cc3ccc4ccn(C)c4n3)NC(=O)NC1=O)C2` [Compound 940], the Ki is less than 5 nM.
With `COc1ccc2c(c1)C(=O)N(C[C@@]1(C#Cc3cnc4c(ccn4C)c3)NC(=O)NC1=O)C2` [Compound 941], the inhibition constant (Ki) is less than 5 nM.
`COc1ccc2c(c1)C(=O)N(C[C@@]1(C#Cc3cnc4nc(O)ccc4c3)NC(=O)NC1=O)C2` [Compound 942]: the Ki was less than 5 nM.
`O=C1NC(=O)[C@@](C#Cc2cccnc2)(CN2Cc3ccc(OC(F)F)cc3C2=O)N1` [Compound 943]: the Ki was less than 5 nM.
For `COc1ccc2c(c1)C(=O)N(C[C@@]1(C#Cc3cnc4nc(N)c(C#N)cc4c3)NC(=O)NC1=O)C2` [Compound 944], the inhibition constant Ki was less than 5 nM.
As for `COc1ccc2c(c1)C(=O)N(C[C@@]1(C#Cc3cccc(S(N)(=O)=O)c3)NC(=O)NC1=O)C2` [Compound 945], the Ki was less than 5 nM.
Consider `COc1ccc2c(c1)C(=O)N(C[C@@]1(C#Cc3ccc(S(N)(=O)=O)cc3)NC(=O)NC1=O)C2` [Compound 946], for which the inhibition constant (Ki) was less than 5 nM.
As for `COc1ccc2c(c1)C(=O)N(C[C@@]1(C#Cc3ccccc3S(N)(=O)=O)NC(=O)NC1=O)C2` [Compound 947], the Ki was less than 5 nM.
Consider `COc1ccc2c(c1)C(=O)N(C[C@@]1(C#Cc3cn(C)c(C)n3)NC(=O)NC1=O)C2` [Compound 948], for which the Ki was less than 5 nM.
`COc1ccc2c(c1)C(=O)N(C[C@@]1(C#Cc3cnc4[nH]ccc4c3)NC(=O)NC1=O)C2` [Compound 949]: the Ki is less than 5 nM.
Still for that read-out and setting: to `COc1ccc2c(c1)C(=O)N(C[C@@]1(C#Cc3cc(OC)cc4sc(N)nc34)NC(=O)NC1=O)C2` [Compound 950] belongs less than 5 nM; to `COc1ccc2c(c1)C(=O)N(C[C@@]1(C#Cc3ccc4nccc(OC)c4c3)NC(=O)NC1=O)C2` [Compound 951], less than 5 nM.
Take `COc1ccc2c(c1)C(=O)N(C[C@@]1(C#Cc3nccc4cc[nH]c34)NC(=O)NC1=O)C2` [Compound 952]: the Ki was less than 5 nM.
For `COc1ccc2c(c1)C(=O)N(C[C@@]1(C#Cc3cncc4cc[nH]c34)NC(=O)NC1=O)C2` [Compound 953], the Ki was less than 5 nM.
As to `CNC(=O)c1ccc(C#C[C@]2(CN3Cc4ccc(OC)cc4C3=O)NC(=O)NC2=O)o1` [Compound 954], the inhibition constant (Ki) was less than 5 nM.
For the compound `COc1ccc2c(c1)C(=O)N(C[C@@]1(C#Cc3cncc4cccnc34)NC(=O)NC1=O)C2` [Compound 955], the inhibitory constant (Ki) is less than 5 nM.
Take `COC(=O)c1ccc2cncc(C#C[C@]3(CN4Cc5ccc(OC)cc5C4=O)NC(=O)NC3=O)c2n1` [Compound 956]: the Ki was less than 5 nM.
On to `COc1ccc2c(c1)C(=O)N(C[C@@]1(C#Cc3cncc4ccc(C(N)=O)nc34)NC(=O)NC1=O)C2` [Compound 957], for which the Ki was less than 5 nM.
For `CNC(=O)c1ccc2cncc(C#C[C@]3(CN4Cc5ccc(OC)cc5C4=O)NC(=O)NC3=O)c2n1` [Compound 958], the Ki was less than 5 nM.
Still for that read-out and setting: to `COc1ccc2c(c1)C(=O)N(C[C@@]1(C#Cc3cncc4ccc(C(=O)O)nc34)NC(=O)NC1=O)C2` [Compound 959] belongs less than 5 nM.
Still for that read-out and setting: next, `COc1ccc2c(c1)C(=O)N(C[C@@]1(C#Cc3cnc4[nH]cnc4c3)NC(=O)NC1=O)C2` [Compound 960]: less than 5 nM.
In the case of `COc1ccc2c(c1)C(=O)N(C[C@@]1(C#Cc3cnc4[nH]c(C)nc4c3)NC(=O)NC1=O)C2` [Compound 961], the inhibition constant (Ki) is less than 5 nM.
As to `COc1ccc2c(c1)C(=O)N(C[C@@]1(C#Cc3cc4nc[nH]c4nc3C)NC(=O)NC1=O)C2` [Compound 962], the inhibition constant (Ki) was less than 5 nM.
On to `COc1ccc2c(c1)C(=O)N(CC1(C#Cc3ccc4ncsc4c3)NC(=O)NC1=O)C2` (stereo not drawn) [Compound 963], for which the inhibitory constant (Ki) was less than 5 nM.
Consider `COc1ccc2c(c1)C(=O)N(C[C@]1(C#Cc3ccccc3C(C)C)NC(=O)NC1=O)C2` [Compound 964], for which the inhibitory constant (Ki) is 5 to 25 nM.
Same read-out and setting: to `COc1ccc2c(c1)C(=O)N(C[C@]1(C#Cc3nc4ccccc4s3)NC(=O)NC1=O)C2` [Compound 965] belongs 25 to 100 nM.
As to `COc1ccc2c(c1)C(=O)N(C[C@]1(C#Cc3cnc4ncccc4c3)NC(=O)NC1=O)C2` [Compound 966], the Ki was 25 to 100 nM.
For the compound `COc1ccc2c(c1)C(=O)N(C[C@]1(C#Cc3cccc(C(C)C)c3)NC(=O)NC1=O)C2` [Compound 967], the inhibition constant (Ki) fell in the range of 25 to 100 nM.
In the case of `COc1ccc2c(c1)C(=O)N(C[C@]1(C#Cc3ccc4ncccc4c3)NC(=O)NC1=O)C2` [Compound 968], the inhibition constant Ki fell in the range of 25 to 100 nM.
Consider `O=C1NC(=O)C(C#Cc2cc(F)cc(F)c2)(CN2Cc3ccc(OC(F)F)cc3C2=O)N1` (stereo not drawn) [Compound 969], for which the Ki is less than 5 nM.
On the same count and under the same terms, to `O=C1NC(=O)[C@](C#Cc2cc(F)cc(F)c2)(CN2Cc3ccc(OC(F)F)cc3C2=O)N1` [Compound 970] belongs more than 100 nM.
Take `O=C1NC(=O)C(C#Cc2ccc(F)cc2F)(CN2Cc3ccc(OC(F)F)cc3C2=O)N1` (stereo not drawn) [Compound 971]: the Ki is less than 5 nM.
Same read-out and setting: to `COc1ccc2c(c1)C(=O)N(C[C@@]1(C#Cc3ccc(S(=O)(=O)O)cc3)NC(=O)NC1=O)C2` [Compound 973] belongs less than 5 nM; to `COc1ccc2c(c1)C(=O)N(C[C@@]1(C#Cc3ccccc3)NC(=O)NC1=O)C2` [Compound 1002], less than 5 nM.
`O=C1NC(=O)[C@@](C#Cc2cc(F)cc(F)c2)(CN2Cc3ccc(Cl)cc3C2=O)N1` [Compound 1003B]: the Ki was less than 5 nM.
Turning to `O=C1NC(=O)[C@@](C#Cc2cccc(F)c2)(CN2Cc3ccc(Cl)cc3C2=O)N1` [Compound 1003C], the Ki was less than 5 nM.

Staying with this test, now noted: rhTACEc 70 pM, 30 μM SPDL-3, 90 min pre-incubation at 25° C.; read-out: Ki (nM), TACE inhibitory activity.
`COc1ccc2c(c1)C(=O)N(C[C@@]1(C#Cc3cccnc3N)NC(=O)NC1=O)C2` [Compound 930]: the Ki is 0.56 nM.
Consider `COc1ccc2c(c1)C(=O)N(C[C@@]1(C#Cc3ccc4scnc4c3)NC(=O)NC1=O)C2` [Compound 972], for which the Ki came to 0.12 nM.
